Laboratory results published in ChEMBL document CHEMBL5120865, “Exploration of 6-methyl-7-(Hetero)Aryl-7-Deazapurine ribonucleosides as antileishmanial agents” (Eur J Med Chem, 2022).
pEC50: −log10 of the molar value. Where “and” joins values, the source holds several entries; their conditions need not be identical. Equal values may be shown once.

Legend:
Leishmania infantum [1] = assay: Antileishmanial activity against intracellular Leishmania infantum MHOM/MA(BE)/67 ITMAP263 amastigotes infected in Swiss mouse peritoneal macrophage assessed as inhibition of parasite growth measured after 5 days by geimsa staining based microscopic analysis; assay type: functional, organism-based; conditions: MHOM/MA(BE)/67 ITMAP263, Peritoneal macrophage, 120 h
[2] = Clearance in golden hamster infected with Leishmania infantum MHOM/MA(BE)/67 amastigotes at 50 mg/kg, po SID and measured after 10 days by LC-MS/MS analysis; assay type: ADME, organism-based, Mesocricetus auratus; conditions: in vivo, time 10 day
Cytochrome P450 [3] = molecular target: T1, Cytochrome P450 (Homo sapiens, UniProt P04798+P05177+P05181+P08684+P10632+P10635+P11509+P11712+P13584+P20813+P20815+P20853+P24462+P24903+P33260+P33261+P51589+P78329+P98187+Q02928+Q08477+Q16678+Q16696+Q5TCH4+Q6VVX0+Q7Z449+Q8TAV3+Q96SQ9+Q9HB55); assay: Metabolic stability in human liver microsomes S9 fraction assessed as CYP450-mediated metabolism by measuring parent compound remaining measured after 15 mins in presence of NADPH; assay type: ADME, subcellular; conditions: read-out: Stability
[4] = Toxicity in golden hamster infected with Leishmania infantum MHOM/MA(BE)/67 amastigotes assessed as body weight loss at 50 mg/kg, po SID and administered for 10 days and measured twice weekly; assay type: organism-based, Mesocricetus auratus; conditions: in vivo, 240 h, time 10 day
Cytochrome P450 [5] = molecular target: T1, Cytochrome P450; assay: Metabolic stability in human liver microsomes S9 fraction assessed as CYP450-mediated metabolism by measuring parent compound remaining measured after 60 mins in presence of NADPH; assay type: ADME, subcellular; conditions: read-out: Stability
[6] = molecular target: T2, UDP-glucuronosyltransferases (UGTs) (Homo sapiens, UniProt O60656+O75310+O75795+P06133+P0DTE4+P0DTE5+P16662+P19224+P22309+P22310+P35503+P35504+P36537+P54855+Q6UWM9+Q9BY64+Q9HAW7+Q9HAW8+Q9HAW9); assay: Metabolic stability in human liver microsomes S9 fraction assessed as UGT-mediated metabolism by measuring parent compound remaining measured after 60 mins in presence of NADPH; assay type: ADME, subcellular; conditions: read-out: Stability
[7] = Tmax in golden hamster infected with Leishmania infantum MHOM/MA(BE)/67 amastigotes at 50 mg/kg, po SID and measured after 24 hrs by LC-MS/MS analysis; assay type: ADME, organism-based, Mesocricetus auratus; conditions: in vivo
[8] = Metabolic stability in golden hamster liver microsomes S9 fraction assessed as CYP450-mediated metabolism by measuring parent compound remaining measured after 30 mins in presence of NADPH; assay type: ADME, subcellular, Mesocricetus auratus; conditions: read-out: Stability
[9] = Clearance in golden hamster infected with Leishmania infantum MHOM/MA(BE)/67 amastigotes at 50 mg/kg, po SID and measured after 24 hrs by LC-MS/MS analysis; assay type: ADME, organism-based, Mesocricetus auratus; conditions: in vivo
[10] = Cytotoxicity against Swiss mouse peritoneal macrophages assessed as reduction in cell viability measured after 5 days by microscopic analysis; assay type: toxicity, cell-based, Peritoneal macrophage; conditions: time 5 day
[11] = molecular target: T2, UDP-glucuronosyltransferases (UGTs); assay: Metabolic stability in human liver microsomes S9 fraction assessed as UGT-mediated metabolism by measuring parent compound remaining measured after 30 mins in presence of NADPH; assay type: ADME, subcellular; conditions: read-out: Stability
[12] = Half life in golden hamster infected with Leishmania infantum MHOM/MA(BE)/67 amastigotes at 50 mg/kg, po SID and measured after 24 hrs by LC-MS/MS analysis; assay type: ADME, organism-based, Mesocricetus auratus; conditions: in vivo
Leishmania infantum [13] = assay: Antileishmanial activity against intracellular Leishmania infantum MHOM/MA(BE)/67 amastigotes infected in golden hamster assessed as reduction of amastigote burdens in liver at 50 mg/kg, po SID for 10 days by geimsa staining based microscopic analysis; assay type: functional; design: scale not given: the % may be the effect or the level left; conditions: time 10 day
[14] = Half life in golden hamster infected with Leishmania infantum MHOM/MA(BE)/67 amastigotes at 50 mg/kg, po SID and measured after 10 days by LC-MS/MS analysis; assay type: ADME, organism-based, Mesocricetus auratus; conditions: in vivo, time 10 day
[15] = Cmax in golden hamster infected with Leishmania infantum MHOM/MA(BE)/67 amastigotes at 50 mg/kg, po SID and measured after 10 days by LC-MS/MS analysis; assay type: ADME, organism-based, Mesocricetus auratus; design: dose 50 mg/kg, time 10 day, route po; conditions: in vivo
[16] = Metabolic stability in golden hamster liver microsomes S9 fraction assessed as CYP450-mediated metabolism by measuring parent compound remaining measured after 60 mins in presence of NADPH; assay type: ADME, subcellular, Mesocricetus auratus; conditions: read-out: Stability

SMILES: Cc1ncnc2c1c(-c1cc(Cl)ccn1)cn2[C@@H]1O[C@H](CO)[C@@H](O)[C@H]1O
- pEC50 (Leishmania infantum [1]): 6.17
- CL/F [2]: 34.7 mL/min/kg
- remaining at 0.25 h (Cytochrome P450 [3]): 92%
- Activity [4]: Non-Toxic
- remaining at 1 h (Cytochrome P450 [5]): 75%
- remaining at 1 h [6]: 98%
- Tmax [7]: 0.5 h
- remaining at 0.5 h [8]: 95%
- CL/F [9]: 56.6 mL/min/kg
- CC50 at 120 h [10]: > 64 µM
- remaining at 0.5 h [11]: 96%
- half-life [12]: 2.7 h
- Activity (Leishmania infantum [13]): 52.7%
- half-life [14]: 1.7 h
- Cmax [15]: 1210 ng/mL and 3.2 µM
- remaining at 1 h [16]: 87%
